The values that follow come from patent publication US20230079819A1, “COMPOUNDS AND USES THEREOF” (Foghorn Therapeutics Inc., priority 2019, published 2023).

One assay has as its target T1, BRM (Homo sapiens, UniProt P51531).
T1 construct: made in house; host or cells: High Five insect cells
The experiment in a line: ATPase catalytic activity of BRM, ADP-Glo in vitro biochemical assay. Particulars: ATPase catalytic activity, 30 nM BRM, 400 μM ATP, read-out: BRM IP50 (μM)*. For orientation: In ADP-Glo the light output rises with the ADP produced.

The target of a further assay is T2, BRG-1 (Homo sapiens, UniProt P51532).
T2 construct: made in house; host or cells: High Five insect cells
The experiment in a line: ATPase catalytic activity of BRG-1, ADP-Glo in vitro biochemical assay. Particulars: ATPase catalytic activity, 30 nM BRG-1, 400 μM ATP, read-out: BRG1 IP50 (μM)*.

T1 sequence (P51531 whole entry): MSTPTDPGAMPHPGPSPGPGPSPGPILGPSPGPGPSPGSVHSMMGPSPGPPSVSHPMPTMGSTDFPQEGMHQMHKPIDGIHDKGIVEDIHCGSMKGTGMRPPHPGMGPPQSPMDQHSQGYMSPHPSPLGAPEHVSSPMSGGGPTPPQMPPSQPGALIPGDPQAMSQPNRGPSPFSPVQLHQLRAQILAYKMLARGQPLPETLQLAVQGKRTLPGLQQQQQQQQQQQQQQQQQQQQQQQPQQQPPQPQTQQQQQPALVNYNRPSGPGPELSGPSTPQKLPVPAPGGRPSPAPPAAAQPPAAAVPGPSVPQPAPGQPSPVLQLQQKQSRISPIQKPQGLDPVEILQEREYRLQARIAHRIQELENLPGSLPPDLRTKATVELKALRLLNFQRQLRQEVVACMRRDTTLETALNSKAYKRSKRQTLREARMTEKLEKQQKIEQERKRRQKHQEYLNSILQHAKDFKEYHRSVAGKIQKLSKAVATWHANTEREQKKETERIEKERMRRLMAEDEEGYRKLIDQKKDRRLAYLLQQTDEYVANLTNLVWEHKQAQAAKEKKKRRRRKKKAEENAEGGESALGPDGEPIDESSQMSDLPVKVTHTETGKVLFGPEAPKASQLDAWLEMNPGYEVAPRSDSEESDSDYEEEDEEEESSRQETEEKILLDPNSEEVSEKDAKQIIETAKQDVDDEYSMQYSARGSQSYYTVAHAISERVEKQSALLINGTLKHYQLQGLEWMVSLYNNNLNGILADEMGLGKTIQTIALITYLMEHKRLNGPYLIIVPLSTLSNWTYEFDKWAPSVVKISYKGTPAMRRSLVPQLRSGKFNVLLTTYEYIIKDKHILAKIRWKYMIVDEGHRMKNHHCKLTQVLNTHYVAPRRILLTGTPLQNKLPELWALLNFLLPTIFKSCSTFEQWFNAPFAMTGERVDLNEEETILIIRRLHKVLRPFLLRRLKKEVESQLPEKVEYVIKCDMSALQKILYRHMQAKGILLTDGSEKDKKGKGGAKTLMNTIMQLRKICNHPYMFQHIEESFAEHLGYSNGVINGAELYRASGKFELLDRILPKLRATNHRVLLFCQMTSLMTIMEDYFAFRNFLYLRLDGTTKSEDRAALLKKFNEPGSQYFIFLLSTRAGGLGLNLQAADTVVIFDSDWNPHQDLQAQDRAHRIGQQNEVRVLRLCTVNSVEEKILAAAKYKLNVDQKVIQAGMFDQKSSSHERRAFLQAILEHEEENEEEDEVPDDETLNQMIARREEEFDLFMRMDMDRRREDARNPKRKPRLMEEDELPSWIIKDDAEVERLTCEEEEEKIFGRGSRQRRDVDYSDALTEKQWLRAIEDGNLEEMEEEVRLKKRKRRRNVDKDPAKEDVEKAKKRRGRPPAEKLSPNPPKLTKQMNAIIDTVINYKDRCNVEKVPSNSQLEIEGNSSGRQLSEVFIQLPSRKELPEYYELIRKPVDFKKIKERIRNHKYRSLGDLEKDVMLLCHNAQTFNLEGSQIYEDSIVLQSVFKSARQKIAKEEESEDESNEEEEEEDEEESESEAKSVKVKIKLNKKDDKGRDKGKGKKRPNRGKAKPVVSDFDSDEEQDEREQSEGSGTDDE
T2 sequence (P51532 whole entry): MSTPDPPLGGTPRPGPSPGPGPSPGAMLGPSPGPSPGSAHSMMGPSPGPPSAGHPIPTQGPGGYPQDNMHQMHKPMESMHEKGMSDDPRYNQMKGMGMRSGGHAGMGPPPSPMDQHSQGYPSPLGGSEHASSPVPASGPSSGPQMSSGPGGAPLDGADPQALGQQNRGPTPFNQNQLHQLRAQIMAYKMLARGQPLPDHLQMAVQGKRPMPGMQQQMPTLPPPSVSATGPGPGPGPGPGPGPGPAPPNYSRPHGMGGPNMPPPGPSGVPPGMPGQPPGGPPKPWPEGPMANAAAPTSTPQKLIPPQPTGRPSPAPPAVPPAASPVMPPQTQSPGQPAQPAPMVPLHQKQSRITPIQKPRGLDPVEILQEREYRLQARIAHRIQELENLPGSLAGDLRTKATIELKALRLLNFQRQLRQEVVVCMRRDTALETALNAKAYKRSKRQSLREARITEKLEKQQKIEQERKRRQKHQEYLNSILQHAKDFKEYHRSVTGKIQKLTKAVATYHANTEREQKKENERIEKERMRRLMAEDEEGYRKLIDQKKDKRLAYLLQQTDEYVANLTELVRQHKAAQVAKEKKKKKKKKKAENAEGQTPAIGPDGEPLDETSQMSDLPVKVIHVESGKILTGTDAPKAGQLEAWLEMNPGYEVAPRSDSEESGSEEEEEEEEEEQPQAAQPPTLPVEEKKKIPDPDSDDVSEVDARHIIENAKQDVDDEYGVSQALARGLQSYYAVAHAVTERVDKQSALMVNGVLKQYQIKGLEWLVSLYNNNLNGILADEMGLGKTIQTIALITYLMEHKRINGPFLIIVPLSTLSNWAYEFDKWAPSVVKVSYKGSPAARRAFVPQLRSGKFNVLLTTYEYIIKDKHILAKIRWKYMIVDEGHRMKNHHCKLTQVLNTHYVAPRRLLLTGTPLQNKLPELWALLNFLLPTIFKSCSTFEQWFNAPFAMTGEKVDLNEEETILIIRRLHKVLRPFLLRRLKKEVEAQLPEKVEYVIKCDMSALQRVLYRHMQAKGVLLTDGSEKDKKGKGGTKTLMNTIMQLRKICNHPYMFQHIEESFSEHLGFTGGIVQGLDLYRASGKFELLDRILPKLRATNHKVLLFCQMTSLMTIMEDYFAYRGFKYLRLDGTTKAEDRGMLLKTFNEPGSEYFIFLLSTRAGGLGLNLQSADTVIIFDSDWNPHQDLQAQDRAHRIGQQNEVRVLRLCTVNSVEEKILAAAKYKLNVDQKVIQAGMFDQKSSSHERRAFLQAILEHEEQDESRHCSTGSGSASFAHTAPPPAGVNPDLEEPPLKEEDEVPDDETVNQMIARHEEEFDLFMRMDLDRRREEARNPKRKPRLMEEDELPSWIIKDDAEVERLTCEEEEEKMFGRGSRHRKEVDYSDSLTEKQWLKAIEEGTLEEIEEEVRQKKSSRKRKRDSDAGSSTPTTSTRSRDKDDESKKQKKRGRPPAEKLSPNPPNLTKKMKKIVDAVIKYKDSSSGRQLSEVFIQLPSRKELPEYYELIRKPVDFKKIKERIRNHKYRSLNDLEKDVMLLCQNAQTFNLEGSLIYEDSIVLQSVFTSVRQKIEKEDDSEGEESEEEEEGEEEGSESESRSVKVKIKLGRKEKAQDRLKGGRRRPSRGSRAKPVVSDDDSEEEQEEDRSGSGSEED

On to `CCS(=O)(=O)n1ccc(C(=O)NCC(=O)Nc2nc(-c3cccc(N4CCC(O)CC4)c3)cs2)c1` [Compound 209], for which the IC50 on BRM and on BRG-1 was more than 0.01 µM in each case.

On to `CS(=O)(=O)n1ccc(C(=O)NCC(=O)Nc2nc(-c3cccc(N4CCCOCC4)c3)cs2)c1` [Compound 210], for which the IC50 on BRM and on BRG-1 was more than 0.01 µM each time.

`CS(=O)(=O)n1ccc(C(=O)NCC(=O)Nc2nc(-c3cccc(N4CCC[C@@H](C#N)C4)c3)cs2)c1` [Compound 211]: the IC50 on BRM and on BRG-1 was more than 0.01 µM in each case.

Take `CS(=O)(=O)n1ccc(C(=O)NCC(=O)Nc2nc(-c3cccc(N4CC(O)C4)c3)cs2)c1` [Compound 212]: the IC50 at BRM and at BRG-1 was less than 0.01 µM throughout.

For the compound `CS(=O)(=O)n1ccc(C(=O)NCC(=O)Nc2nc(-c3cccc(N4CCC[C@@H](F)C4)c3)cs2)c1` [Compound 213], the IC50 on BRM and on BRG-1 was more than 0.01 µM each time.

For the compound `CS(=O)(=O)n1ccc(C(=O)NCC(=O)Nc2nc(-c3cccc(N4CC5CC4CO5)c3)cs2)c1` (centres unmarked) [Compound 214], the IC50 at BRM and on BRG-1 was more than 0.1 µM in each case.

`CS(=O)(=O)n1ccc(C(=O)NCC(=O)Nc2nc(-c3cccc(N4CCC[C@@H](O)C4)c3)cs2)c1` [Compound 215]: the IC50 on BRM and at BRG-1 was more than 0.01 µM throughout.

Take `CS(=O)(=O)n1ccc(C(=O)NCC(=O)Nc2nc(-c3cccc(N4CCC(C#N)CC4)c3)cs2)c1` [Compound 216]: the IC50 at BRM and at BRG-1 was more than 0.01 µM in each case.

Take `CC(C)(C(=O)O)n1ccc(-c2cccc(-c3csc(NC(=O)CNC(=O)c4ccn(S(C)(=O)=O)c4)n3)c2)n1` [Compound 217, 2-methyl-2-[3-[3-[2-[[2-[(1-methylsulfonylpyrrole-3-carbonyl)amino]acetyl]amino]thiazol-4-yl]phenyl]pyrazol-1-yl]propanoic acid]: the IC50 on BRM and on BRG-1 was more than 0.01 µM each time.

As for `CS(=O)(=O)n1ccc(C(=O)NCC(=O)Nc2nc(-c3cccc(-c4ccn(CC(=O)O)n4)c3)cs2)c1` [Compound 218], the IC50 at BRM and at BRG-1 was more than 0.01 µM throughout.

Take `C[C@H]1CN(c2cccc(-c3csc(NC(=O)CNC(=O)c4ccn(S(C)(=O)=O)c4)n3)c2)CC[C@H]1O` [Compound 219]: the IC50 on BRM and on BRG-1 was more than 0.01 µM in each case.

Regarding `CN1CCN(c2cccc(-c3csc(NC(=O)CNC(=O)c4ccn(S(C)(=O)=O)c4)n3)c2)CC1=O` [Compound 220], the IC50 at BRM and on BRG-1 was more than 0.01 µM throughout.

In the case of `C[C@@H]1CN(c2cccc(-c3csc(NC(=O)CNC(=O)c4ccn(S(=O)(=O)N(C)C)c4)n3)c2)C[C@H](C)O1` [Compound 221], the IC50 on BRM and at BRG-1 was more than 0.01 µM in each case.

On to `COC1CC2(C1)CN(c1cccc(-c3csc(NC(=O)CNC(=O)c4ccn(S(C)(=O)=O)c4)n3)c1)C2` [Compound 222], for which the IC50 at BRM is more than 0.01 µM; at BRG-1, more than 0.1 µM.

In the case of `CS(=O)(=O)n1ccc(C(=O)NCC(=O)Nc2nc(-c3cccc(N4C[C@H]5COC[C@H]5C4)c3)cs2)c1` [Compound 223], the IC50 at BRM and at BRG-1 was more than 0.01 µM throughout.

As for `CO[C@H]1CCN(c2cccc(-c3csc(NC(=O)CNC(=O)c4ccn(S(C)(=O)=O)c4)n3)c2)C1` [Compound 224], the IC50 at BRM and at BRG-1 was more than 0.01 µM each time.

With `CS(=O)(=O)n1ccc(C(=O)NCC(=O)Nc2nc(-c3cccc(N4CCC(F)(F)C4)c3)cs2)c1` [Compound 225], the IC50 at BRM and at BRG-1 was more than 0.01 µM each time.

Regarding `CO[C@@H]1CCN(c2cccc(-c3csc(NC(=O)CNC(=O)c4ccn(S(C)(=O)=O)c4)n3)c2)C1` [Compound 226], the IC50 at BRM is less than 0.01 µM; at BRG-1, more than 0.01 µM.

Turning to `CS(=O)(=O)n1ccc(C(=O)NCC(=O)Nc2nc(-c3cccc(N4CC(N5CCOCC5)C4)c3)cs2)c1` [Compound 227], the IC50 at BRM and at BRG-1 was more than 0.01 µM throughout.

For `CCS(=O)(=O)n1ccc(C(=O)NCC(=O)Nc2nc(-c3cccc(N4C[C@@H](C)O[C@@H](C)C4)c3)cs2)c1` [Compound 228], the IC50 at BRM was less than 0.01 µM; on BRG-1, more than 0.01 µM.

Regarding `C[C@@H]1CN(c2cccc(-c3csc(NC(=O)CNC(=O)c4ccn(C5COC5)c4)n3)c2)C[C@H](C)O1` [Compound 229], the IC50 at BRM and on BRG-1 was more than 0.1 µM throughout.

On to `CS(=O)(=O)n1ccc(C(=O)NCC(=O)Nc2nc(-c3cccc(N4CC5CC(C4)O5)c3)cs2)c1` [Compound 230], for which the IC50 on BRM was more than 0.01 µM; at BRG-1, more than 0.1 µM.

Take `CS(=O)(=O)n1ccc(C(=O)NCC(=O)Nc2nc(-c3cccc(N4CCCC4)c3)cs2)c1` [Compound 231]: the IC50 on BRM and on BRG-1 was more than 0.01 µM throughout.

Take `C[C@H]1CCCN(c2cccc(-c3csc(NC(=O)CNC(=O)c4ccn(S(C)(=O)=O)c4)n3)c2)C1` [Compound 232]: the IC50 at BRM and on BRG-1 was more than 0.01 µM in each case.

Consider `CS(=O)(=O)n1ccc(C(=O)NCC(=O)Nc2nc(-c3cccc(N4CCC4)c3)cs2)c1` [Compound 233], for which the IC50 at BRM is less than 0.01 µM; at BRG-1, more than 0.01 µM.

On to `Cn1ncc2c1CCN(c1cccc(-c3csc(NC(=O)CNC(=O)c4ccn(S(C)(=O)=O)c4)n3)c1)C2` [Compound 234], for which the IC50 at BRM and at BRG-1 was more than 0.01 µM throughout.

On to `C[C@@H]1CN(c2cccc(-c3csc(NC(=O)CNC(=O)c4ccn(C5(C)COC5)c4)n3)c2)C[C@H](C)O1` [Compound 235], for which the IC50 at BRM and at BRG-1 was more than 0.01 µM throughout.

As for `CC[C@H]1CN(c2cccc(-c3csc(NC(=O)CNC(=O)c4ccn(S(C)(=O)=O)c4)n3)c2)CCO1` [Compound 236], the IC50 on BRM and at BRG-1 was more than 0.01 µM each time.

For `CC[C@@H]1CN(c2cccc(-c3csc(NC(=O)CNC(=O)c4ccn(S(C)(=O)=O)c4)n3)c2)CCO1` [Compound 237], the IC50 at BRM and at BRG-1 was more than 0.01 µM throughout.

Consider `C[C@@H]1CCCN(c2cccc(-c3csc(NC(=O)CNC(=O)c4ccn(S(C)(=O)=O)c4)n3)c2)C1` [Compound 238], for which the IC50 on BRM and on BRG-1 was more than 0.01 µM throughout.

Consider `C[C@@H]1COCCN1c1cccc(-c2csc(NC(=O)CNC(=O)c3ccn(S(C)(=O)=O)c3)n2)c1` [Compound 239], for which the IC50 on BRM and at BRG-1 was more than 0.01 µM in each case.

Consider `CS(=O)(=O)n1ccc(C(=O)NCC(=O)Nc2nc(-c3cccc(N4CCC(F)(F)CC4)c3)cs2)c1` [Compound 241], for which the IC50 at BRM is more than 0.01 µM; on BRG-1, more than 0.1 µM.

On to `CS(=O)(=O)n1ccc(C(=O)NCC(=O)Nc2nc(-c3cccc(N4CCCCC4)c3)cs2)c1` [Compound 242], for which the IC50 at BRM and on BRG-1 was more than 0.01 µM each time.

For the compound `CC1(O)CCN(c2cccc(-c3csc(NC(=O)CNC(=O)c4ccn(S(C)(=O)=O)c4)n3)c2)CC1` [Compound 243], the results for the IC50 on BRM and on BRG-1 were more than 0.01 µM and more than 0.1 µM, respectively.

`COC[C@@H]1CCCN(c2cccc(-c3csc(NC(=O)CNC(=O)c4ccn(S(C)(=O)=O)c4)n3)c2)C1` [Compound 244]: the IC50 on BRM and at BRG-1 was more than 0.01 µM each time.

As to `CC(C)(C)n1ccc(C(=O)NCC(=O)Nc2nc(-c3cccc(N4CC5(COC5)C4)c3)cs2)c1` [Compound 245], the IC50 at BRM and at BRG-1 was more than 0.01 µM in each case.

In the case of `COC1CN(c2cccc(-c3csc(NC(=O)CNC(=O)c4ccn(S(C)(=O)=O)c4)n3)c2)C1` [Compound 246], the IC50 on BRM is less than 0.01 µM; on BRG-1 it was more than 0.01 µM.

As for `Cc1cccc(-c2csc(NC(=O)CNC(=O)c3ccn(S(C)(=O)=O)c3)n2)c1` [Compound 247], the IC50 at BRM and on BRG-1 was more than 0.01 µM each time.

Consider `CS(=O)(=O)n1ccc(C(=O)NCC(=O)Nc2nc(-c3cccc(C(F)F)c3)cs2)c1` [Compound 248], for which the IC50 on BRM and at BRG-1 was more than 0.01 µM in each case.

Turning to `CC1Cc2ccc(-c3csc(NC(=O)CNC(=O)c4ccn(S(C)(=O)=O)c4)n3)cc2O1` (centres unmarked) [Compound 249], the IC50 on BRM and on BRG-1 was more than 0.01 µM each time.

In the case of `COCCN1CCc2ccc(-c3csc(NC(=O)CNC(=O)c4ccn(S(C)(=O)=O)c4)n3)cc21` [Compound 250], the IC50 at BRM and at BRG-1 was more than 0.01 µM in each case.

For the compound `CO[C@H]1C[C@H](Oc2cccc(-c3csc(NC(=O)CNC(=O)c4ccn(S(C)(=O)=O)c4)n3)c2)C1` [Compound 252], the IC50 at BRM and at BRG-1 was more than 0.01 µM throughout.

As to `CS(=O)(=O)n1ccc(C(=O)NCC(=O)Nc2nc(-c3cc(F)c4ccoc4c3)cs2)c1` [Compound 253], the IC50 at BRM and at BRG-1 was more than 0.01 µM each time.

Regarding `CO[C@H]1C[C@@H](Oc2cccc(-c3csc(NC(=O)CNC(=O)c4ccn(S(C)(=O)=O)c4)n3)c2)C1` [Compound 254], the IC50 at BRM and at BRG-1 was more than 0.01 µM each time.

For the compound `CS(=O)(=O)n1ccc(C(=O)NCC(=O)Nc2nc(-c3cc(F)c4c(c3)OCC4)cs2)c1` [Compound 255], the IC50 at BRM and at BRG-1 was less than 0.01 µM in each case.

Take `CS(=O)(=O)n1ccc(C(=O)NCC(=O)Nc2nc(-c3cccc(C4(F)CCC4)c3)cs2)c1` [Compound 256]: the IC50 at BRM and at BRG-1 was more than 0.01 µM throughout.

For the compound `CO[C@]1(C)CCCN(c2cccc(-c3csc(NC(=O)CNC(=O)c4ccn(S(C)(=O)=O)c4)n3)c2)C1` [Compound 257], the IC50 at BRM and on BRG-1 was more than 0.01 µM throughout.

As to `CO[C@@]1(C)CCCN(c2cccc(-c3csc(NC(=O)CNC(=O)c4ccn(S(C)(=O)=O)c4)n3)c2)C1` [Compound 258], the IC50 at BRM and at BRG-1 was more than 0.01 µM each time.

Turning to `CN1CCOCc2ccc(-c3csc(NC(=O)CNC(=O)c4ccn(S(C)(=O)=O)c4)n3)cc21` [Compound 259], the IC50 at BRM and at BRG-1 was more than 0.01 µM in each case.
